The test system of one experiment is Human BMSCs. The experiment in a line: Fatty acid composition of BMSC after fatty acid supplementation of media (lipid extraction, gas chromatography). Format: cell-based. The protocol:
DHA and AA were diluted in DMEM with 1% horse serum. α-tocopherol was dissolved in ethanol (absolute) before supplementation. FA and α-tocopherol were stored at 4° C. in darkness to prevent their oxidation. Following forty-eight hours, the “additional differentiation medium” was changed to “differentiation medium”, containing DMEM supplemented with SPN, 2 mM L-glutamine, 200 μM butylated hydroxyanisole (BHA), 1 mM dibutyryl cyclic AMP (dbcAMP), 0.5 mM isobutylmethylxanthine (IBMX), 1 μM retinoic acid (RA) and N2 supplement with increasing amounts of DHA (Sigma) and AA (Sigma) (0, 30, 40, 50 and 60 μM). α-tocopherol was added at a concentration of 40 μM to all samples.
Following removal of medium from the culture dish, adherent cells were washed twice with cold PBS and dried by gentle aspiration with a Pasteur pipette. To each culture dish, 3 ml of a hexane:isopropanol (3:2 vol:vol) (HIP) solvent mixture containing 5 mg/dl butylated hydroxytoluene (BHT) was added. The dishes were gently shaken at room temperature for 10 minutes and the supernates were transferred to methylation tubes. The procedure was repeated with 1.5 ml HIP and the lipid extracts were added to the same tubes. For quantitative experiments which included simultaneous protein determination, lipid extraction was performed with HIP which contained a known amount of heneicosanoic acid (21:0) so as to obtain an internal standard. In addition, for these experiments, known volumes of concentrated cell suspensions were directly extracted with HIP and the protein content was determined from an equal volume of cell concentrates.
The lipid extracts were evaporated to dryness under a stream of nitrogen. […] The tubes were capped under N2, vortexed and heated at 100° C. for 1 hour. The resulting fatty acid methyl esters (FAME) were extracted into hexane, after acidification of the mixture with 3 drops of 3N HCl, and kept under N2 at −20° C. until analysis.
Injection was performed with a split/splitless injector kept at 220° C. at a split ratio of 1:30. Detector temperature was 250° C. The column temperature gradient was as follows: 70° C. for 2 min, increased at a rate of 20° C./min to 150° C. where it remained for 5 min, increased at 3° C./min to 210° C. and a final increase at 10° C./min to 230° C. at which it was kept for 3 min until the end of the run. FAME peaks were integrated and computed with the aid of the Varian Star Integrator computer package and were identified by comparison of their retention times with that of authentic standards. Injection of the samples was performed with the aid of a CTC-AS 200 autosampler.
The amount of individual fatty acids is presented as % weight of the total identified fatty acids and as μg FA/μg protein.

The subject of a further experiment is hBMSc. The experiment in a line: HPLC analysis of dopamine, DOPA and DOPAC in supernatant of differentiating hBMSc. Format: cell-based, human. Conditions: medium supplemented with 56 mM KCl, 10 minutes incubation. Here is the method:
hBMSc were cultured as described in Table 6 below. [table] Samples were stabilized by adding 88 μl of 85% orthophosphoric acid and 4.4 mg of metabisulfite to ml sample. Dopamine was extracted by aluminium adsorption (Alumina, Bioanalytical Systems Inc.). Separation of injected samples (50 μl) was effected by isocratic elution on a HPLC-electron chemical detection (HPLC-ECD) system with a reverse-phase C18 column (125×4.6 mm dimension, Hichrom, Inc.) in a monochloroacetate buffer mobile phase. The flow rate was set at 1.2 ml per min, and the oxidative potential of the analytical cell was set at +650 mV. Results were validated by co-elution with dopamine standards under varying buffer conditions and detector settings.

In the next experiment the test system is mBMSc. The experiment in a line: Differentiation of mouse BMSc into oligodendrocyte precursors (morphology, survival, A2B5 immunoassay). It is filed as cell-based. The note with it: for effect on cell-morphology (comparison of substances) / neuronal cell morphology: 24 hr incubation; for neuronal cell morphology: inducing substance alone. Here is the method: Mice B5/EGFP (male) were sacrificed by cervical dislocation and were prepared with 70% alcohol solution. […] The cell pellet was resuspended in 1 ml growth medium and diluted to 10 ml. The cells were plated in polystyrene plastic tissue cultures 75 cm^2 flask (Corning Incorporated, Corning, N.Y.) in the “proliferation medium” (see Example 1 hereinabove) for one week. The cells were then transferred to polylysin-coated slide-chambers (3200 cells/well), supplemented “proliferation medium” and incubated for 24 hours at 37° C. The growth medium was then replaced with “oligodendrocytes differentiation media” composed of DMEM supplemented with 2 mM glutamine, SPN, one or more of the following substances: bFGF (10 ng/ml), EGF (10-20 ng/ml), Interlukin-1b (20-40 ng/ml), dbcAMP (1-2 mM), retinoic acid (0.5 or 1 μM), neurotrophin-3 (50 or 100 ng/ml), human platelet derived growth factor (PDGF-AA; 5-20 ng/ml), N2 supplement, triiodothyronien (T3; 40 ng/ml) and ciliary neurotrophic factor (20 ng/ml; CNTF).
The cultures were incubated at 37° C. for 1, 2 or 6 days (replacing growth media with fresh media every two days) then fixed in 4% PFA. Cells were blocked in 10% FCS solution then incubated with 5 ug/ml anti-A2B5 monoclonal antibody (1:200; R&D systems; 1:200) overnight at 4° C. Cells were then washed twice in PBS for 10 min and incubated with goat-anti-mouse Cy-3 second antibody (Jackson laboratories; 1:500) at room temperature for 20 min. The incidence of cells stained positive for A2B5 (an early marker of oligodendrocyte progenitors) was determined by using a fluorescent microscope equipped with Image ProPlus cell-counting program (Cybernetics).

[1] abbreviates: +DHA (30 μM), Additional differentiation medium.

As for `CCCCC/C=C\C/C=C\C/C=C\C/C=C\CCCC(=O)O` [AA, arachidonic acid], the “optimal concentration in the additional differentiation medium to obtain the best cellular FA profile” value in the experiment on Human BMSCs amounted to 40 µM.
Consider `CC/C=C\C/C=C\C/C=C\C/C=C\C/C=C\C/C=C\CCC(=O)O` [DHA, docosahexaenoic acid], for which, in the experiment on Human BMSCs, the “optimal concentration in the additional differentiation medium to obtain the best cellular FA profile” value came to 40 µM. In the experiment on Human BMSCs (setting [1]), the “20:4 n-6 of BMSC” value is given as 8.15 % weight, the “22:6 n-3 of BMSC” value is reported as 16.70 % weight, the “Sum MUFA of BMSC” value is on record as 24.24 % weight and the “Sum PUFA of BMSC” value is recorded as 33.08 % weight. Also, the “Sum Saturated fatty acids of BMSC” value in the experiment on Human BMSCs (setting [1]) worked out at 42.69 % weight. Further, in the experiment with Human BMSCs (+DHA, Differentiation medium), the “20:4 n-6 of BMSC” value is 5.40 % weight, the “22:6 n-3 of BMSC” value amounted to 13.01 % weight, the “Sum MUFA of BMSC” value was 12.32 % weight and the “Sum PUFA of BMSC” value was 25.71 % weight. For the same molecule, in the experiment with Human BMSCs (+DHA, Differentiation medium), the “Sum Saturated fatty acids of BMSC” value is recorded as 61.79 % weight.
For `[Cl-].[K+]` [KCl], the “effect on dopamine secretion” value in the experiment on hBMSc is on record as “further enhanced dopamine secretion”.
`CCCC(=O)Nc1ncnc2c1ncn2[C@@H]1O[C@@H]2COP(=O)(O)O[C@H]2[C@H]1OC(=O)CCC` [dbcAMP, dibutyryl cyclic AMP]: in the experiment on mBMSc, the “effect on cell-morphology (comparison of substances)” value (“effect on cell-morphology” below) is reported as “most pronounced effect on cell-morphology” and the neuronal cell morphology result is listed as “Neuronal cell morphology was observed”.
For the molecule `N[C@@H](Cc1cc(I)c(Oc2ccc(O)c(I)c2)c(I)c1)C(=O)O` [thyroid factor 3, triiodothyronien], the “effect on cell-morphology” value in the experiment with mBMSc is reported as “most pronounced effect on cell-morphology”.
For `Cc1c(C)c2c(c(C)c1O)CC[C@@](C)(CCC[C@H](C)CCC[C@H](C)CCCC(C)C)O2` [α-Tocopherol, α-tocopherol], the “effect on PUFA composition of the neuron-like cells” value in the experiment on Human BMSCs (40 μM) is “did not affect the PUFA composition”.
As to “IL-6: IL-6, named only in the result sentence (data not shown)”, the “effect on cell-morphology” value in the experiment on mBMSc is on record as “most pronounced effect on cell-morphology”.
For Interlukin-1b [IL-1b], the neuronal cell morphology entry in the experiment on mBMSc is “Neuronal cell morphology was observed”.

B1: neurotrophin-3 (protein, UniProt P20783 139-257, looked up)
Neurotrophin-3: YAEHKSHRGEYSVCDSESLWVTDKSSAIDIRGHQVTVLGEIKTGNSPVKQYFYETRCKEARPVKNGCRGIDDKHWNSQCKTSQTYVRALTSENNKLVGWRWIRIDTSCVCALSRKIGRT
notes: neurotrophin-3, inducing substance in oligodendrocytes differentiation media
Consider B1, for which, in the experiment on mBMSc, the “incidence of antibody-labeled A2B5 (comparison of substances)” value is listed as “highest incidence”, the “effect on cell-morphology” value was “most pronounced effect on cell-morphology” and the neuronal cell morphology result is reported as “Neuronal cell morphology was observed”.
